Experiment [1] relates to Mycosphaerella graminicola; Anamorph: Septoria tritici. Kind of experiment: Leaf Blotch of Wheat (SEPTTR) disease control. Particulars: Zymoseptoria tritici; for pest or weed control at 100 ppm: rate 100 ppm; for pest or weed control at 121.5 g/ha: rate 121.5 g/H. Type of experiment: in vivo. The method, boiled down:
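Protective or curative format: Septoria tritici inoculation either preceded or followed fungicide application to first-leaf Yuma wheat. Severity scored 0–100%; control expressed versus untreated.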

For experiment [2], the system named is Puccinia triticina; Synonym: Puccinia recondite f. Sp. Tritici. Kind of experiment: Wheat Brown Rust (PUCCRT) disease control. Type of experiment: in vivo. The conditions noted are these: Puccinia triticina, topical; for pest or weed control at 100 ppm: rate 100 ppm; for pest or weed control at 121.5 g/ha: rate 121.5 g/H. The method, boiled down: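 Brown rust on first-leaf Yuma wheat: spore inoculation before or after spray application (acetone/Triton X-100 solution, or EC with Trycol in track spray), overnight 100% RH at 22 °C, disease developed at 24 °C. Severity scored 0–100% and converted to percent control against untreated.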

[3] abbreviates: 24 h, 1 Day Protectant, read-out: SEPTTR 1 DP disease control.
The mark [4] stands for this setting: 72 h, 3 Day Curative, read-out: SEPTTR 3 DC disease control.
[5] abbreviates: 24 h, 1 Day Protectant, read-out: PUCCRT 1 DP disease control.
Setting [6] is: 72 h, 3 Day Curative, read-out: PUCCRT 3 DC disease control.

These results are taken from patent publication US9265253B2, “Use of macrocyclic picolinamides as fungicides” (DOW AGROSCIENCES LLC, priority 2013, dated 2016).

Where two headings read alike, the source gives them in different places.

Turning to `COc1ccnc(C(=O)N[C@H]2CCC[C@H](CC3CCCC3)[C@@H](OCC(C)C)[C@H](C)OC2=O)c1OCOC(C)=O` [Compound F123], the pest or weed control at 100 ppm in experiment [1] (setting [3]), in experiment [1] (setting [4]), in experiment [2] (setting [5]) and in experiment [2] (setting [6]) was 80 to 100% in each case. In addition, the pest or weed control at 121.5 g/ha in experiment [1] (setting [3]) is 80 to 100%; in experiment [1] (setting [4]), 80 to 100%; in experiment [2] (setting [5]) it was 80 to 100%; in experiment [2] (setting [6]), 0 to 80%.

In the case of `CCOCC(=O)Oc1c(OC)ccnc1C(=O)N[C@H]1CCC[C@H](CCF)[C@@H](OCC(C)C)[C@H](C)OC1=O` [Compound F184], the pest or weed control at 100 ppm in experiment [1] (setting [3]), in experiment [1] (setting [4]), in experiment [2] (setting [5]) and in experiment [2] (setting [6]) was 80 to 100% throughout.

`COc1ccnc(C(=O)N[C@H]2CCC[C@H](C)[C@@H](Oc3ccccc3)[C@H](C)OC2=O)c1O` [Compound F38]: the pest or weed control at 100 ppm in experiment [1] (setting [3]), in experiment [2] (setting [5]) and in experiment [2] (setting [6]) was 80 to 100% throughout.

`COc1ccnc(C(=O)N[C@H]2CCC[C@H](Cc3ccc(F)cc3)[C@@H](Oc3ccccc3)[C@H](C)OC2=O)c1OC(C)=O` [Compound F68]: the pest or weed control at 100 ppm in experiment [1] (setting [3]), in experiment [1] (setting [4]), in experiment [2] (setting [5]) and in experiment [2] (setting [6]) was 80 to 100% in each case. Further, the pest or weed control at 121.5 g/ha was in the range of 80 to 100% in experiment [1] (setting [3]), 80 to 100% in experiment [1] (setting [4]), 80 to 100% in experiment [2] (setting [5]) and 0 to 80% in experiment [2] (setting [6]).

With `COc1ccnc(C(=O)N[C@H]2CCC[C@H](CCC(C)C)[C@@H](Oc3ccccc3)[C@H](C)OC2=O)c1OCOC(C)=O` [Compound F89], the pest or weed control at 100 ppm in experiment [1] (setting [3]), in experiment [1] (setting [4]), in experiment [2] (setting [5]) and in experiment [2] (setting [6]) was 80 to 100% in each case. For the same molecule, the pest or weed control at 121.5 g/ha in experiment [1] (setting [3]) lay within 80 to 100%; in experiment [1] (setting [4]) it was 80 to 100%; in experiment [2] (setting [5]), 80 to 100%; in experiment [2] (setting [6]), 0 to 80%.

On to `COc1ccnc(C(=O)N[C@H]2CCC[C@H](CCOc3ccccc3)[C@@H](Oc3ccccc3)[C@H](C)OC2=O)c1O` [Compound F44], for which the pest or weed control at 100 ppm in experiment [1] (setting [3]), in experiment [1] (setting [4]), in experiment [2] (setting [5]) and in experiment [2] (setting [6]) was 80 to 100% throughout.

In the case of `COc1ccnc(C(=O)N[C@H]2CCC[C@H](Cc3ccc(F)cc3F)[C@@H](OCc3ccccc3)[C@H](C)OC2=O)c1OCOC(C)=O` [Compound F137], the pest or weed control at 100 ppm in experiment [1] (setting [3]), in experiment [1] (setting [4]), in experiment [2] (setting [5]) and in experiment [2] (setting [6]) was 80 to 100% each time. Also, the pest or weed control at 121.5 g/ha in experiment [1] (setting [3]) fell in the range of 80 to 100%; in experiment [1] (setting [4]), 80 to 100%; in experiment [2] (setting [5]), 80 to 100%; in experiment [2] (setting [6]), 0 to 80%.

As to `COc1ccnc(C(=O)N[C@H]2CCC[C@H](CCC(C)C)[C@@H](OC(=O)C3CCCC3)[C@H](C)OC2=O)c1O` [Compound F8], the pest or weed control at 100 ppm in experiment [1] (setting [3]), in experiment [1] (setting [4]), in experiment [2] (setting [5]) and in experiment [2] (setting [6]) was 80 to 100% in each case.

As for `COc1ccnc(C(=O)N[C@H]2CCC[C@H](CC3CCCC3)[C@@H](OC(=O)C(C)C)[C@H](C)OC2=O)c1O` [Compound F35], the figures for the pest or weed control at 100 ppm in experiment [1] (setting [3]) and in experiment [2] (setting [5]) were 80 to 100% and 0 to 80%, respectively.

As for `COCCO[C@@H]1[C@@H](Cc2ccccc2)CCC[C@H](NC(=O)c2nccc(OC)c2O)C(=O)O[C@H]1C` [Compound F24], the pest or weed control at 100 ppm in experiment [1] (setting [3]), in experiment [1] (setting [4]), in experiment [2] (setting [5]) and in experiment [2] (setting [6]) was 80 to 100% in each case.
